Assay results: the METLIN SMRT retention time set (Domingo-Almenara et al. 2019)

Experiment: gradient 5% acetonitrile 3 min, to 50% in 2 min, to 85% in 15 min, held 3 min, 100 µL/min
Settings: column: Zorbax Extend-C18 2.1 x 50 mm; eluents: water / acetonitrile, 0.1% formic acid
Method in brief: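 Each retention time is based on an adduct peak selected computationally and verified by manual inspection. Measurements used HPLC–quadrupole time-of-flight mass spectrometry in positive and negative ionization mode on mixtures of ~100 pure standards. Chromatography ran on a Zorbax Extend-C18 column (2.1 × 50 mm, 1.8 μm) at 100 μL/min with water and acetonitrile, each containing 0.1% formic acid, and dead and dwell volumes of 40 μL and 900 μL.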

Work on `Fc1ccc(C2Cn3nnc(-c4nc(-c5cccnc5)no4)c3CO2)cc1` (configuration not stated) yielded an RP-LC retention time of 896 s.
With `CCOc1ccccc1N1C(=O)CC(N2CCC(C(N)=O)CC2)C1=O` (configuration not stated) the RP-LC retention time was 589 s.
For `O=C1CC(c2nc(-c3ccccn3)no2)CN1c1ccc2c(c1)OCCO2` (configuration not stated), the RP-LC retention time was 715 s.
In the case of `C=CCN1C(=O)COc2ccc(-c3csc(NC(=O)c4ccco4)n3)cc21`, the RP-LC retention time is reported as 882 s.
`Cc1nc(SCC(=O)NCc2ccccc2Cl)cc(-c2ccccn2)n1` showed an RP-LC retention time of 848 s.
Work on `COc1ccc(OCc2nc(-c3ccc(NS(C)(=O)=O)cc3)no2)cc1` yielded an RP-LC retention time of 868 s.
Compound `Nc1cccc(N2CCn3c(nc4ccccc43)C2)c1` has an RP-LC retention time of 525 s.
Compound `COc1ccc(-c2nc3cnc(Br)cn3c2Nc2ccc(OC)c(OC)c2)cc1` has an RP-LC retention time of 852 s.
For `CC(C(=O)NCCCN1CCCCCC1)n1c(=O)c(C(F)(F)F)nc2ccccc21` (configuration not stated), the RP-LC retention time was 611 s.
`O=C(Cn1nnc2ccccc2c1=O)N1CCN(c2ncccn2)CC1` showed an RP-LC retention time of 629 s.
Compound `CCOC(=O)c1c(C)[nH]c(C)c1S(=O)(=O)N1CCC(C(=O)Nc2cccc(C#N)c2)CC1` has an RP-LC retention time of 797 s.
Work on `O=C(c1ccco1)N1CCC2(CC1)NC(=O)N(Cc1ccc(F)cc1)C2=O` yielded an RP-LC retention time of 692 s.
`O=C(Nc1ccc(C2(C(=O)NCC3CCCO3)CC2)cc1)c1ccc(Br)cc1` (configuration not stated) gave an RP-LC retention time of 828 s.
With `Cc1cccc(NC(=O)Nc2nccn(-c3ccc(C(C)C)cc3)c2=O)c1` the RP-LC retention time was 1190 s.
`Cc1ccc(N2C=C(C(=O)N3CCCC3)S(=O)(=O)c3ccccc32)cc1F` showed an RP-LC retention time of 813 s.
`Cc1ccn2cc(-c3ccc(NC(=O)c4ccc(C(C)(C)C)cc4)cc3)nc2n1` showed an RP-LC retention time of 803 s.
In the case of `Cc1noc2nc(C)n(CC(=O)NC3CCCc4ccccc43)c(=O)c12` (configuration not stated), the RP-LC retention time is reported as 822 s.
For `CCOC(=O)c1c(C)n(C)c2ccc(OC(C)C(=O)OC)cc12` (configuration not stated), the RP-LC retention time was 894 s.
For `O=c1[nH]c(SCc2nnc(Nc3ccccc3)s2)nc2sc3c(c12)CCC3`, the RP-LC retention time was 801 s.
In the case of `CCN1CCc2nc(NC(=O)C3CCN(S(=O)(=O)c4ccc(Cl)s4)CC3)sc2C1`, the RP-LC retention time is reported as 656 s.
Work on `CCCNc1cc(N2CCC(CCC(=O)N(C)CCc3ccccn3)CC2)ncn1` yielded an RP-LC retention time of 570 s.
With `CC(C)N1CCN(S(=O)(=O)c2cc(-c3nnc(C4CCCC4)o3)co2)CC1` the RP-LC retention time was 641 s.
Work on `COCCn1c(CCCC(=O)NC2CCCCCC2)nc2cccnc21` yielded an RP-LC retention time of 667 s.
In the case of `Cc1ccc(C)c(-c2csc(NC(=O)c3ccc4c(c3)OCO4)n2)c1`, the RP-LC retention time is reported as 1140 s.
Compound `COc1ccc(CNC(=O)C2=C3CCCN3c3ccccc3S2(=O)=O)c(OC)c1` has an RP-LC retention time of 835 s.
Work on `O=c1c(S(=O)(=O)N2CCCC2)cccn1Cc1ccc(Cl)cc1` yielded an RP-LC retention time of 876 s.
For `O=C(Cc1ccccc1)NCc1nc(-c2ccc(-c3csc(C4CC4)n3)cc2)no1`, the RP-LC retention time was 1040 s.
Work on `O=C(c1ccc(F)cc1)N1CCC(CCNS(=O)(=O)c2ccc(F)cc2F)CC1` yielded an RP-LC retention time of 809 s.
`COc1cccc(C(=O)Nc2c3c(nn2C(C)(C)C)CS(=O)(=O)C3)c1` showed an RP-LC retention time of 752 s.
Compound `Cc1cc(C(=O)NC2CCCCC2)nn1C` has an RP-LC retention time of 755 s.
`COc1nn(C)cc1C(=O)NCc1cc(-c2cccs2)on1` gave an RP-LC retention time of 662 s.
With `CS(=O)(=O)N1CCC(C(=O)Nc2ccc(C(F)(F)F)cc2)Oc2ccccc21` (configuration not stated) the RP-LC retention time was 1030 s.
`COc1ccc(-c2nc3ccc(C4=NNC(=O)CC4C)cc3[nH]2)cc1` (configuration not stated) gave an RP-LC retention time of 654 s.
With `CCc1ccc(-c2noc(CSc3nc4cc5c(cc4c(=O)n3CC3CCCO3)OCO5)n2)cc1` (configuration not stated) the RP-LC retention time was 1280 s.
Work on `O=C(NCCc1ccccc1)N(C1CCOCC1)C1CCN(Cc2cccc(F)c2)CC1` yielded an RP-LC retention time of 604 s.
`COC(=O)c1ccc2c(=O)n(Cc3ccc(F)cc3)c(N3CCN(C)CC3)nc2c1` showed an RP-LC retention time of 668 s.
`CN1C(=O)CCSc2ccccc21` gave an RP-LC retention time of 711 s.
